Blank lines part the entries; values can stand above or below the molecule they belong to.
Tests used:
MycC = molecular target: T1, MycC (Homo sapiens, UniProt P01106); test: Degradation of MycC protein in L363 cells, JESS/Western blot of lysates; assay type: cell-based; details: L-363, 24 h, L-363 cells, 24 h; for Dmax at 0.5 µM: read-out: % Degradation of MycC (L-363) 24 h, 0.5 μM; for Dmax at 1 µM: read-out: % Degradation of MycC (L-363) 24 h, 1 μM; for Dmax at 3 µM: read-out: % Degradation of MycC (L-363) 24 h, 3 μM; for Dmax at 6 µM: read-out: % Degradation of MycC (L-363) 24 h, 6 μM
T1 construct: endogenous in cells; host or cells: L363
T1 sequence (P01106 whole entry): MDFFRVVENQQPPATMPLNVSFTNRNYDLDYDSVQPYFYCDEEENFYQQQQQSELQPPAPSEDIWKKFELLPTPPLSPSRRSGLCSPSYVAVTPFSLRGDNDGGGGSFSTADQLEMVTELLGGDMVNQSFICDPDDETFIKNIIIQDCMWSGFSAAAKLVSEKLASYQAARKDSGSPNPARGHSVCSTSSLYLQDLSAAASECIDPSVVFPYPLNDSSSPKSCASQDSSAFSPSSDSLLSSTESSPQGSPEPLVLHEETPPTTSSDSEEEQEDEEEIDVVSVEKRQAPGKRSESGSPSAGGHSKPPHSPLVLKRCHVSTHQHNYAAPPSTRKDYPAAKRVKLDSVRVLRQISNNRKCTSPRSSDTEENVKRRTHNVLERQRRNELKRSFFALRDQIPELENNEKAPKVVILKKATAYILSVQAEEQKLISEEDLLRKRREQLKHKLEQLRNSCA
In short: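 L363 suspension cells were seeded at 1E6 cells per well and exposed to compound (stock 10 mM in DMSO) for 24 hrs. Cells were collected, spun down, rinsed with PBS, lysed in RIPA buffer cocktail on ice, clarified and kept at −80 degrees. Lysate protein was quantified by BCA, and c-myc was measured on JESS by chemiluminescence with tubulin and GAPDH loading controls in the NIR channel.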

MycN = molecular target: T2, MycN (Homo sapiens, UniProt P04198); test: Degradation of MycN protein in SK-N-BE(2) cells, JESS/Western blot of lysates; assay type: cell-based; details: SKNBE2, 24 h, SKNBE2 cells, 24 h; for Dmax at 0.5 µM: read-out: % Degradation of MycN (SKNBE2) 24 h, 0.5 μM; for Dmax at 1 µM: read-out: % Degradation of MycN (SKNBE2) 24 h, 1 μM; for Dmax at 3 µM: read-out: % Degradation of MycN (SKNBE2) 24 h, 3 μM; for Dmax at 6 µM: read-out: % Degradation of MycN (SKNBE2) 24 h, 6 μM
T2 construct: endogenous in cells; host or cells: SK-N-BE(2)
T2 sequence (P04198 1-464): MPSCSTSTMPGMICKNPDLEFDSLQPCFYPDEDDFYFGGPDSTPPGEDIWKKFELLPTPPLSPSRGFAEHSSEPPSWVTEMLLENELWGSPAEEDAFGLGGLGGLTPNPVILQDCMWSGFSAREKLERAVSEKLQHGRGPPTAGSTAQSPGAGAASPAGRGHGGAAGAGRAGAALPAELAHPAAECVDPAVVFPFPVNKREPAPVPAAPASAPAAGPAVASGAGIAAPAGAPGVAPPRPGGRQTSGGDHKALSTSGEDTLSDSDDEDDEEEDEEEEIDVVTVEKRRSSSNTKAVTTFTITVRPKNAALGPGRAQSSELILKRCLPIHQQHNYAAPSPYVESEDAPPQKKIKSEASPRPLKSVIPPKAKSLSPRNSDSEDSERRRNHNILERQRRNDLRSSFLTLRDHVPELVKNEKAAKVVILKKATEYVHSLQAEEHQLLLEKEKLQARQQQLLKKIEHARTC
In short: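 SK-N-BE(2) adherent cells (5E5 per well of a 6 well dish) were grown 24 hrs, then exposed to compounds diluted 1 in 20 in media, with DMSO controls, for 24 hrs. Cells were scraped, pelleted, PBS washed and lysed in RIPA buffer cocktail; after BCA protein quantitation, n-myc was detected by chemiluminescence on JESS/Western blot with tubulin and GAPDH loading controls read in the near infra red channel.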

Compound: NC[C@@H]1CCCN(c2nccc(Nc3cc(C4CCCC4)[nH]n3)n2)C1 [Compound 109, 2-[(3S)-3-(Aminomethyl)-1-piperidyl]-N-(5-cyclopentyl-1H-pyrazol-3-yl)pyrimidin-4-amine]
Dmax at 0.5 µM (MycC): < 20% | Dmax at 1 µM (MycC): < 20% | Dmax at 3 µM (MycC): 80 to 100% | Dmax at 6 µM (MycC): 80 to 100% | Dmax at 0.5 µM (MycN): 20 to 49% | Dmax at 1 µM (MycN): 50 to 79% | Dmax at 3 µM (MycN): 50 to 79% | Dmax at 6 µM (MycN): 80 to 100%

Compound: NC[C@@H]1CCN(c2nccc(Nc3cc(C4CCCC4)[nH]n3)n2)C1 [Compound 110, 2-[(3S)-3-(Aminomethyl)pyrrolidin-1-yl]-N-(5-cyclopentyl-1H-pyrazol-3-yl)pyrimidin-4-amine]
Dmax at 0.5 µM (MycC): < 20% | Dmax at 3 µM (MycC): 80 to 100% | Dmax at 6 µM (MycC): 80 to 100% | Dmax at 0.5 µM (MycN): 20 to 49% | Dmax at 1 µM (MycN): 50 to 79% | Dmax at 3 µM (MycN): 50 to 79% | Dmax at 6 µM (MycN): 80 to 100%

Compound: CN(C)C[C@H]1CCN(c2nccc(Nc3cc(C4CCCC4)[nH]n3)n2)C1 [Compound 111, N-(5-Cyclopentyl-1H-pyrazol-3-yl)-2-[(3R)-3-[(dimethylamino)methyl]pyrrolidin-1-yl]pyrimidin-4-amine]
Dmax at 0.5 µM (MycC): < 20% | Dmax at 1 µM (MycC): < 20% | Dmax at 3 µM (MycC): < 20% | Dmax at 6 µM (MycC): < 20% | Dmax at 0.5 µM (MycN): < 20% | Dmax at 1 µM (MycN): < 20% | Dmax at 3 µM (MycN): < 20% | Dmax at 6 µM (MycN): 50 to 79%

Compound: NCC1CN(c2nccc(Nc3cc(C4CCCC4)[nH]n3)n2)CC(F)(F)C1 (stereo not shown) [Compound 115, 2-[5-(Aminomethyl)-3,3-difluoro-1-piperidyl]-N-(5-cyclopentyl-1H-pyrazol-3-yl)pyrimidin-4-amine]
Dmax at 3 µM (MycC): 80 to 100% | Dmax at 6 µM (MycC): 80 to 100% | Dmax at 0.5 µM (MycN): 20 to 49% | Dmax at 1 µM (MycN): 50 to 79% | Dmax at 3 µM (MycN): 80 to 100% | Dmax at 6 µM (MycN): 80 to 100%

Compound: NC[C@@H]1CN(c2nccc(Nc3cc(C4CCCC4)[nH]n3)n2)CCO1 [Compound 116, 2-[(2R)-2-(Aminomethyl)morpholin-4-yl]-N-(5-cyclopentyl-1H-pyrazol-3-yl)pyrimidin-4-amine]
Dmax at 1 µM (MycC): < 20% | Dmax at 3 µM (MycC): 80 to 100% | Dmax at 6 µM (MycC): 80 to 100% | Dmax at 0.5 µM (MycN): < 20% | Dmax at 1 µM (MycN): < 20% | Dmax at 3 µM (MycN): 80 to 100% | Dmax at 6 µM (MycN): 80 to 100%

Continued, values first:

Dmax at 6 µM (MycC): 50 to 79% | Dmax at 3 µM (MycN): 50 to 79% | Dmax at 6 µM (MycN): 80 to 100%
Compound: CNCC12CC(C1)N(c1nccc(Nc3cc(C4CCCC4)ncn3)n1)C2 [Compound 112, N-(6-Cyclopentylpyrimidin-4-yl)-2-[4-(methylaminomethyl)-2-azabicyclo[2.1.1]hexan-2-yl]pyrimidin-4-amine]

Dmax at 0.5 µM (MycC): 80 to 100% | Dmax at 1 µM (MycC): 80 to 100% | Dmax at 3 µM (MycC): 80 to 100% | Dmax at 6 µM (MycC): 80 to 100% | Dmax at 0.5 µM (MycN): 80 to 100% | Dmax at 1 µM (MycN): 80 to 100% | Dmax at 3 µM (MycN): 80 to 100% | Dmax at 6 µM (MycN): 80 to 100%
Compound: NCC12CCC(C1)N(c1nccc(Nc3cc(C4CC4)[nH]n3)n1)C2 (stereo not shown) [Compound 113, 2-[4-(Aminomethyl)-2-azabicyclo[2.2.1]heptan-2-yl]-N-(5-cyclopropyl-1H-pyrazol-3-yl)pyrimidin-4-amine]

Dmax at 0.5 µM (MycC): 80 to 100% | Dmax at 1 µM (MycC): 80 to 100% | Dmax at 3 µM (MycC): 80 to 100% | Dmax at 6 µM (MycC): 80 to 100% | Dmax at 0.5 µM (MycN): 80 to 100% | Dmax at 1 µM (MycN): 80 to 100% | Dmax at 3 µM (MycN): 80 to 100% | Dmax at 6 µM (MycN): 80 to 100%
Compound: CNCC12CCC(C1)N(c1nccc(Nc3cc(C4CCCC4)[nH]n3)n1)C2 (stereo not shown) [Compound 114]
